Data: patent US7618988B2, “Use of substituted aminomethyl chromans” (Merck Patentgesellschaft, priority 2001, dated 2009)

Assays:
[1] = tested on: Parkinsonian cynomolgus monkey; assay: MPTP Parkinsonian cynomolgus monkey, parkinsonian symptoms (Laval University Disability Scale); type: in vivo
Text: A typical animal model for idiopathic Parkinson's disease is the Parkinsonian cynomolgus monkey according to P. J. Blanchet et al., Exp. Neurology 1998; 153: 214-222. Monkeys render parkinsonian by repeated injections of 1-methyl-4-phenyl-1,2,3,6-tetrahydropyridine (MPTP). Parkinsonian symptoms are qualitatively assessed by the use of the Laval University Disability Scale (B. Gomez-Mancilla et al., 1993; Mov. Disord. 8: 144-150) measuring the following symptoms: posture, mobility, climbing, gait, holding food, vocalizing, grooming, social interaction.

[2] = tested on: rat; assay: striatonigral degeneration model in the rat (turning behavior); type: in vivo; conditions: induced by apomorphine or amphetamine
Text: Another more recent animal model is the striatonigral degeneration approach in the rat according to G. K. Wenning et al., J. Neural Transm. Suppl., 1999; 55: 103-113. Rats receive an unilateral injection of 6-hydroxydopamine into the left medial forebrain bundle followed by an injection of quinolinic acid into the ipsilateral striatum inducing nigrostriatal degeneration. The degeneration results in turning behavior to a challenge with dopaminomimetics such as apomorphine or amphetamine. Turning behavior is measured by an automated recorder.

[3] = tested on: oxotremorine-induced tremor; assay: oxotremorine-induced tremor; type: in vivo; conditions: rating scale
Description: A typical animal model for drug-induced tremors is the oxotremorine-induced tremor (e.g. H. Hallberg and O. Almgren, Acta Physiol. Scand., 1987; 129: 407-13; J. G. Clement and W. R. Dyck, J. Pharmacol. Meth., 1989; 22: 25-36). Oxotremorine induces tremor which is measured by a rating scale.

[4] = tested on: rats; assay: ultrasonic vocalization test in rats; conditions: Rattus norvegicus, in vivo
Text: (§1) The affinity to the 5-HT1A receptor can be determined in vitro by radioligand binding experiments according to Cossery J M et al. (Eur. J. Pharmacol. 1987; 140: 143-155). The functional agonistic properties at the 5HT1A receptor can be determined in vitro in the GTP-gamma-S test (Newman-Tancredi A et al., Eur. J. Pharmacol.1996; 307: 107-111). A standard in vivo animal model to test for the 5HT1A agonistic properties is the ultrasonic vocalization test in rats (e.g. deFry J et al., Eur. J. Pharmacol. 1993; 249: 331-339; Sanchez C, Behav. Pharmacol. 1993; 4: 269-277). The affinity for dopamine D4 receptors can be determined in vitro by radioligand binding experiments according to Klokow M et al. (Drug Res. 1986; 36: 197-200).

[5] = tested on: Weaver mutant mouse; assay: Weaver mutant mouse (locomotor activity); conditions: in vivo
Text: Typical genetic models in mutant animals are the Campus Syndrome in the Pietrain pig according to A. Richter et al. (Exp. Neurology, 1995; 134: 205-213) or the Weaver mutant mouse according to J. R. Simon and B. Ghetti (Mol. Neurobiol., 1994; 9: 183-189). In the Campus Syndrome model, these mutant pigs show a high-frequency tremor when standing and during locomotion, but not while lying at rest. Assessment of tremor is made by accelerometric recording. In the Weaver mutant mouse, degenerative cerebellar atrophy is […] in association with tremor, gait instability, and toppling over the sides after a few steps.

[6] = tested on: rats; assay: systemic 3-nitropropionic acid (3-NP) model in rats; type: in vivo, rat
Description: A typical animal model is the systemic 3-nitropropionic acid (3-NP) model in rats according to C. V. Borlongan et al., Brain Res., 1995; 697: 254-257. Rats are treated with injections of the selective striatal neurotoxin 3-NP i.p. every fourth day (C. V. Borlongan et al., Brain Res. Protocols, 1997; 1: 253-257). After two injections of 3-NP, rats display nocturnal hyperactivity reflecting symptoms of early Huntington's disease, whereas rats treated with four injections of 3-NP display nocturnal akinesia (hypoactivity) reflecting symptoms of late Huntington's disease. Nocturnal activity is automatically measured in conventional acitivity cages by infrared beams. (2R,4R)-2-({[5-(4-fluorophenyl)-pyridin-3ylmethyl]-amino}-methyl)-chroman-4-ol or a pharmaceutical acceptable salt or solvate thereof reduce both the nocturnal hyperactivity and akinesia.

[7] = tested on: rats; assay: posthypoxic myoclonus in rats; conditions: rat, in vivo
Description: A typical animal model for myoclonus is myoclonus induced by an acute hypoxic episode according to D. D. Truong et al., Mov. Dsiord., 1994; 9: 201-206). In this model of posthypoxic myoclonus, rats undergo a cardiac arrest for 8 minutes and are resuscitated thereafter. Myoclonic jerks occur spontaneously but can be provoked by auditory stimulation, too, worsening over the days following cardiac arrest.

[8] = tested on: mutant dystonic hamster; assay: mutant dystonic hamster; type: in vivo; conditions: scoring system
Text: A typical animal model is the mutant dystonic hamster according to A. Richter and W. Löscher, Prog. Neurobiol. 1998; 54: 633-677. In this genetically dystonic hamsters, dystonic attacks are provoked by taking the animal from the home cage and placing it on a balance. The dystonic syndrome consists of a sequence of abnormal movements, and the severity of the single symptoms is rated by a scoring system.

[9] = tested on: patients with cervical dystonia (spasmodic torticollis); assay: double-blind study in cervical dystonia (TWSTRS); type: in vivo, human; conditions: 2.5 mg to 20 mg b.i.d.
[10] = target: 5HT1A receptor (Homo sapiens, UniProt P08908); assay: GTP-gamma-S test (5HT1A agonism); type: biochemical; conditions: in vitro, 5HT1A agonistic properties; read-out: ED50 in GTP-gamma-S test
Chain of 5HT1A receptor (P08908 whole entry): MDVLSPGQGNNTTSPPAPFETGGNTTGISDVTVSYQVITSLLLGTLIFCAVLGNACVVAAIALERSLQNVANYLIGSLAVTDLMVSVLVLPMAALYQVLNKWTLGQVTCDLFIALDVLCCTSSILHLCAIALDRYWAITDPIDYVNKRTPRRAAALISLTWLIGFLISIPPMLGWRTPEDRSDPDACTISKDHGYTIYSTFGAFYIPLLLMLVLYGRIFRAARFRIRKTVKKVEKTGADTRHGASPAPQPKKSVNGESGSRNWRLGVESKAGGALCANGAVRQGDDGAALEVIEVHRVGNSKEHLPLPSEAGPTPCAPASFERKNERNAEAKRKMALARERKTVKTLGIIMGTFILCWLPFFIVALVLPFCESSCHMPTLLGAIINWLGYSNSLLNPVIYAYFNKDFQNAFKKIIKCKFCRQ
Text: as §1

O[C@@H]1C[C@H](CNCc2cncc(-c3ccc(F)cc3)c2)Oc2ccccc21 [(2R,4R)-2-({[5-(4-fluorophenyl)-pyridin-3ylmethyl]-amino}-methyl)-chroman-4-ol]
parkinsonian symptoms ([1]; Laval University Disability Scale): reduce all the parkinsonian symptoms
total activity ([1]; cynomolgus monkey, in vivo): increased total activity
turning behavior [2]: dose-dependently antagonized
oxotremorine-induced tremors [3]: inhibit oxotremorine-induced tremors
ED50 [4]: 2 mg/kg
locomotor activity [5]: enhance locomotor activity
nocturnal akinesia ([6]; after four injections of 3-NP): reduce
nocturnal hyperactivity ([6]; after two injections of 3-NP): reduce
number of spontaneous and auditory-evoked myoclonic jerks [7]: dose-dependently reduce the number of spontaneous and autitory-evoked myoclonic jerks
severity of dystonic symptoms [8]: dose-dependently reduce the severity of dystonic symptoms
TWSTRS scores [9]: significant improvement
EC50 [10]: 33 nM
